Source: patent US20250319056A1, “METHODS FOR TREATING CANCER” (THE TRUSTEES OF INDIANA UNIVERSITY, priority 2024, published 2025)

Key:
HCT-116 cells = assay: AlamarBlue cell viability assay, HCT-116 colon cancer cells; assay type: cell-based, human; conditions: for Average Selectivity Index: CC50 non-cancer cells (FHC, FHs 74Int) compared to EC50 HCT-116; for EC50: Homo sapiens, HCT-116, 48 h, AlamarBlue, 48 h with compound, read-out: Human Cell Viability EC50 Colon Cancer (HCT 116)
DLD-1 cells = assay: AlamarBlue cell viability assay, DLD-1 colon cancer cells; assay type: cell-based; conditions: Homo sapiens, 48 h with compound, ^BP = curve baseline plateaued between ~10-20%, read-out: Human Cell Viability EC50 Colon Cancer (DLD1)
HT-29 cells = assay: AlamarBlue cell viability assay, HT-29 colon cancer cells; assay type: cell-based; conditions: Homo sapiens, 48 h with compound, ^BP = curve baseline plateaued between ~10-20%
mHSP60/10 = biological target: T1, mHSP60/10 (Homo sapiens, UniProt P10809); assay: mHSP60/10-mediated dMDH refolding assay; assay type: biochemical; conditions: denatured malate dehydrogenase client; read-out: IC50 mHSP60/10-dMDH refolding
T1 construct: Processed human HSP60 (mHSP60—that would be in mitochondria) was expressed in Rosetta™ 2 (DE3) E. coli; octa-Histidine tag (TEV-cleavable) (N, cleaved yes); made in house; host or cells: E. coli Rosetta 2 (DE3) for mHSP60; Rosetta 2 (DE3) pLysS for HSP10

GroEL/ES = biological target: T2, GroEL/ES (Escherichia coli, UniProt P0A6F5); assay: GroEL/ES-dMDH refolding assay; assay type: biochemical, E. coli
T2 construct: made in house; host or cells: NEB 5-alpha E. coli for GroEL; E. coli BL21 (DE3) for GroES

[1] = AlamarBlue cell viability assay, non-cancerous colon FHC cells; conditions: human, FHC non-cancerous colon cells, Human Cell Viability CC50 Colon (FHC), non-cancerous colon cells, AlamarBlue, 48 h
FHC cells = assay: as above; conditions: read-out: Human Cell Viability CC50 Colon (FHC); non-cancerous colon cells, AlamarBlue, 48 h
[2] = AlamarBlue cell viability assay, non-cancerous intestine FHs-74Int cells; conditions: human, FHs-74Int non-cancerous intestine cells, Human Cell Viability CC50 Intestine (FHs 74Int), non-cancerous intestine cells, AlamarBlue, 48 h
FHs-74Int cells = assay: as above; conditions: read-out: Human Cell Viability CC50 Intestine (FHs 74Int); non-cancerous intestine cells, AlamarBlue, 48 h
NCI-60 cancer cell panel [3] = assay: NCI-60 panel single-dose cell growth screen; assay type: cell-based; conditions: single dose 10 μM; 0 = cytostatic, -100% = cytocidal, +100% = growth
Experimental: FIGS. 10A-10J show cell growth results for 10 lead candidate inhibitors (compound 162, FIG. 10A; compound 163, FIG. 10B; compound 164, FIG. 10C; compound 4, FIG. 10D; compound 165, FIG. 10E; compound 139, FIG. 10F; compound 132, FIG. 10G; compound 143, FIG. 10H; compound 147, FIG. 10I; compound 128, FIG. 10J) tested at 10 μM against the NCI cancer cell panel. Zero indicates no cells growth/death from what was initially plated (cytostatic inhibition). −100% indicates […] (cytocidal inhibition). +100% indicates cell growth.
In a previous study evaluating the anti-cancer effects of ABK inhibitors, the National Cancer Institute (NCI) database was explored for existing cytotoxicity results for any compounds bearing α,β-unsaturated ketone moieties against the comprehensive NCI-60 cancer cell panel. […] The HQ-NAH and NF-NAH inhibitor library was explored based on the similarity to Nifuroxazide's scaffold. […] Initial screening was performed at a single concentration of 10 μM, and cell growth results are presented in aggregate based on cancer cell origin (FIGS. 10A-10J).

NCI-60 cancer cell panel [4] = assay: NCI-60 panel dose-response cell growth testing; assay type: cell-based; conditions: follow-up dose response, range across NCI-60 cell lines
Excerpt: FIGS. 11A-11G show cell growth results in dose-response for 7 lead candidate inhibitors (compound 162, FIG. 11A; compound 164, FIG. 11B; compound 128, FIG. 11C compound 165, FIG. 11D; compound 139, FIG. 11E; compound 143, FIG. 11F; compound 147, FIG. 11G) from initial single-dose NCI-60 screen.
Therefore, they appeared to act in a cytocidal manner.

T1 sequence (P10809 27-573): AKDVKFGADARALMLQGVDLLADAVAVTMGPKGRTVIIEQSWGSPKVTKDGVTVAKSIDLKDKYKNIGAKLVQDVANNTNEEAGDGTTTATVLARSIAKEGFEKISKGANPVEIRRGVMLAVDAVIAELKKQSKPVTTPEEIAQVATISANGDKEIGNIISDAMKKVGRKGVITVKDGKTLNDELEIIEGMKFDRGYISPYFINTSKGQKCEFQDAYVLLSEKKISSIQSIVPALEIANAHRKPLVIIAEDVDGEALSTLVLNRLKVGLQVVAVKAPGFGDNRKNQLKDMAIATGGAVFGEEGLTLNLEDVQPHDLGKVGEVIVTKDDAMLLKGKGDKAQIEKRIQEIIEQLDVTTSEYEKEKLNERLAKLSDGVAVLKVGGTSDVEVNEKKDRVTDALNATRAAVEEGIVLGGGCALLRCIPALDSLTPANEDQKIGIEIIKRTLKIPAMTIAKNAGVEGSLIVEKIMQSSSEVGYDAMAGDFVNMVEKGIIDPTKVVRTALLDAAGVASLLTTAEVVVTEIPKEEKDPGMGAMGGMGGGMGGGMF
T2 sequence (P0A6F5 2-548): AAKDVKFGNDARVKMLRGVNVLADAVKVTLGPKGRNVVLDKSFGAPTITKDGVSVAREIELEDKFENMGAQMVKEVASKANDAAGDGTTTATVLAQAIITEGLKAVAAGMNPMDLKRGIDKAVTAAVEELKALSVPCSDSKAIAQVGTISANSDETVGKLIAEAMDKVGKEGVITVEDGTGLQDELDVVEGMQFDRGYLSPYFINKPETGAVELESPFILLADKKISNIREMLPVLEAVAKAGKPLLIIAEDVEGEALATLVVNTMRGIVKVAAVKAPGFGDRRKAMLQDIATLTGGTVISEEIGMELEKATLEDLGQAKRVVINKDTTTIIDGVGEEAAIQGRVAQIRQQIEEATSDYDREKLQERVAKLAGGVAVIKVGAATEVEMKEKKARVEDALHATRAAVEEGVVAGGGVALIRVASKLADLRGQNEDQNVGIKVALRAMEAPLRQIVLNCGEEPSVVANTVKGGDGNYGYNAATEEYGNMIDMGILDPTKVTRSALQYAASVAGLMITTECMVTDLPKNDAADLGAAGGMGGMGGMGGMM

SMILES	Average Selectivity Index (HCT-116 cells)	EC50 (HCT-116 cells)	EC50 (DLD-1 cells)	EC50 (HT-29 cells)	IC50 (mHSP60/10)	IC50 (GroEL/ES)	CC50 at 48 h [1]	CC50 (FHC cells)	CC50 at 48 h [2]	CC50 (FHs-74Int cells)	cell growth % NCI cancer cell panel (NCI-60 cancer cell panel [3])	GI50 (NCI-60 cancer cell panel [4])
COc1ccc(C(=O)N/N=C/c2ccc(O)c3ncccc23)cc1 [Compound 18, N′-((8-hydroxyquinolin-5-yl)methylene)-4-methoxybenzohydrazide]	5.3	7.8 µM	3.8 µM	3.5 µM	0.8 to 9 µM	0.8 to 9 µM	28.4 µM	28 µM	54.9 µM	55 µM	–	–
CCOc1ccc(S(=O)(=O)Nc2ccc(C(=O)N/N=C/c3ccc(O)c4ncccc34)cc2)cc1 [Compound 147, 4-ethoxy-N-(4-(2-((8-hydroxyquinolin-5-yl)methylene)hydrazine-1-carbonyl)phenyl)benzenesulfonamide]	25	1.8 µM	6.2 µM	2.9 µM	–	–	52 µM	–	40 µM	–	negative % growth	200 to 400 nM
